According to patent US11098257B2, “Bioderived fuels and methods of making the same” (Alliance for Sustainable Energy, LLC, priority 2019, dated 2021):
In brackets after ≈: the same amount, converted by molar mass.

How the values were obtained:
Format in all cases: physicochemical
[1] = Boiling point (simulated distillation T90 D2887; blend by TGA); conditions: measured value
Text: Boiling Point. Tboil of pure was estimated using T90 of a simulated distillation (D2887), with blend Tboil determined using thermogravimetric analysis (TGA).

Flash point measurement = conditions: measured value
Procedure: Flash point. D7094 was used to measure Tflash with an average error of ±1.3° C.

[2] = Rapid small-scale oxidation test (RSSOT), PetroOxy induction time
Procedure: The next important consideration is that of safety and fuel quality upon storage of the novel blendstock. Oxidation stability of 4-butoxyheptane was examined experimentally. Two distinct characterizations were performed regarding oxidation potential during storage. The first utilized a rapid small-scale oxidation test (RSSOT) using a PetroOxy instrument to determine induction time, which indicates the potential for a fuel to oxidize during storage, which may result in quality degradation from formation of low molecular weight acids and insoluble polymers.

[3] = Water solubility, ether in aqueous layer by GC/MS; conditions: thermodynamic from solid; purified ether, water saturated 1:5 by volume, left overnight
Procedure: Water Solubility. […] The mixed samples were left overnight to separate and the amount of ether in the aqueous layer was determined by GC/MS.

[4] = Storage stability aging per ASTM D4625, GC-MS profile; conditions: GC-MS profile after 6 weeks of aging (simulating 6 months)
Procedure: Storage stability testing. Aging conditions to test storage stability of the target ether are based on the procedure of ASTM D4625 Standard Test Method for Middle Distillate Fuel Storage Stability. This method accelerates the oxidation rate of diesel fuel by approximately 4-fold, with one week under these conditions equivalent to approximately one month of storage at 21° C. It should be noted that this degree of acceleration has not been validated for ethers, but nonetheless provides a standard protocol for diesel range sample aging. Aging was conducted for 6 weeks (simulating 6 months) with measurement of peroxide concentration at 2-week intervals. Peroxide concentration was measured following AOCS method Cd 8b-90, modified for potentiometric end point detection and smaller sample size. A sample of isoamyl ether (>99%, non-stabilized, Sigma-Aldrich) was aged alongside the 4-butoxyheptane for comparison. Samples of 4-butoxyheptane before and after aging were analyzed by gas chromatography with mass spectrometry (GC-MS) in an attempt to identify components produced by oxidation (see Table 11 below). The ether samples were diluted volumetrically in acetone 1:10. Analysis was conducted with an Agilent 7890A GC coupled with an Agilent 5975C mass selective detector (MSD). […]

[5] = Lower heating value from bomb calorimeter HHV (D240) and hydrogen content; conditions: measured value
Procedure: Heating Values. HHV was found using a bomb calorimeter to combust 15 mL of sample (D240), with LHV calculated using sample hydrogen content (D240, Section 10.5.1) measured using a LECO TruSpec CHN determinator. To find hydrogen content, samples were combusted in excess oxygen at 950° C. The amount of CO2 and H2O produced could then be quantified using IR and using an EDTA calibration standard the hydrogen wt % could be extracted.

SMILES | Boiling Point [1] [°C] | Flashpoint (Flash point measurement) [°C] | induction period ([2]; neat ether, no antioxidant) | induction period with antioxidant ([2]; with 100 ppm butylated hydroxytoluene (BHT)) [min] | solubility [3] [µg/mL] | % Total Area [4] [%] | Lower Heating Value [5] [mJ/kg] | Lower Heating Value ([5]; listed as drawing 5) [mJ/kg]
CCCCOC(CCC)CCC [4-butoxyheptane] | 198 | 64 | about 23 minutes | > 60 | 15 (≈ 87.1 µM) | 94.90 | 39.2 | 39
CCCCCCOC(CCC)CCC [4-hexoxyheptane] | 234 | 68 | – | – | – | – | 43 | –
CCCCCC(CCCCC)OCC [6-ethoxyundecane] | 236 | 83 | – | – | – | – | 42 | –
